We go through four compounds from BindingDB's records for PubMed 36970145 (n/a, 2023).

Structures are written as SMILES.

The nature of this assay: Inhibition of human 20S immuno proteosome beta5i subunit using Suc-LLVY-AMC as substrate measured after 10 mins by fluorescence based analysis.
`N#Cc1cccc(NC(=O)Nc2ccc3n(c2=O)C[C@@H]2C[C@H]3CN(C(=O)c3ccc4ccccc4c3)C2)c1` registered a half-inhibitory concentration (IC50) of 22.1 µM. In other words, the double-digit micromolar range. To `O=C(Nc1ccc(Cl)cc1)Nc1ccc2n(c1=O)C[C@@H]1C[C@H]2CN(C(=O)c2ccc3ccccc3c2)C1` belongs 8.44 µM.

`O=C(Nc1ccccc1)Nc1ccc2n(c1=O)C[C@@H]1C[C@H]2CN(C(=O)c2ccc3ccccc3c2)C1` displayed an IC50 of 31.6 µM. With `COc1ccccc1NC(=O)Nc1ccc2n(c1=O)C[C@@H]1C[C@H]2CN(C(=O)c2ccc3ccccc3c2)C1`, the IC50 came out at 5.6 µM.

As a reminder, the IC50 is the concentration that gives 50% inhibition. Higher therefore signals a need for much substance.
